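96-well plates; 48 h exposure; 5 concentrations. Endpoints by linear interpolation between flanking doses. Not reached: highest tested concentration assigned. At the TGI there is no net growth.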
Columns and labels:
Test in all cases: DTP human tumour cell line panel, 48 h
RPMI-8226 leukemia = tested on: RPMI-8226 leukemia
IGROV1 ovarian = tested on: IGROV1 ovarian
NCI-H23 lung = tested on: NCI-H23 lung
NCI-H460 lung = tested on: NCI-H460 lung
HT29 colon = tested on: HT29 colon
MCF7 breast = tested on: MCF7 breast
NCI/ADR-RES ovarian = tested on: NCI/ADR-RES ovarian
UO-31 renal = tested on: UO-31 renal
UACC-62 melanoma = tested on: UACC-62 melanoma
HCT-15 colon = tested on: HCT-15 colon
BT-549 breast = tested on: BT-549 breast
SR leukemia = tested on: SR leukemia
DMS 273 small cell lung = tested on: DMS 273 small cell lung
NCI-H522 lung = tested on: NCI-H522 lung
SK-MEL-5 melanoma = tested on: SK-MEL-5 melanoma
MDA-N = tested on: MDA-N
A498 renal = tested on: A498 renal
COLO 205 colon = tested on: COLO 205 colon
PC-3 prostate = tested on: PC-3 prostate
KM20L2 colon = tested on: KM20L2 colon
UACC-257 melanoma = tested on: UACC-257 melanoma
SN12C renal = tested on: SN12C renal
MDA-MB-435 = tested on: MDA-MB-435
SF-268 CNS = tested on: SF-268 CNS
DU-145 prostate = tested on: DU-145 prostate
HL-60(TB) leukemia = tested on: HL-60(TB) leukemia
SNB-19 CNS = tested on: SNB-19 CNS
NCI-H226 lung = tested on: NCI-H226 lung
RXF 393 renal = tested on: RXF 393 renal
DLD-1 colon = tested on: DLD-1 colon
CAKI-1 renal = tested on: CAKI-1 renal
MDA-MB-231 breast = tested on: MDA-MB-231 breast
T-47D breast = tested on: T-47D breast
M14 melanoma = tested on: M14 melanoma
HOP-92 NSCLC = tested on: HOP-92 NSCLC
DMS 114 small cell lung = tested on: DMS 114 small cell lung
LOX IMVI melanoma = tested on: LOX IMVI melanoma
SF-539 CNS = tested on: SF-539 CNS
SF-295 CNS = tested on: SF-295 CNS
A549 NSCLC = tested on: A549 NSCLC
OVCAR-5 ovarian = tested on: OVCAR-5 ovarian
OVCAR-3 ovarian = tested on: OVCAR-3 ovarian
OVCAR-8 ovarian = tested on: OVCAR-8 ovarian
K-562 leukemia = tested on: K-562 leukemia
HOP-18 NSCLC = tested on: HOP-18 NSCLC
M19-MEL melanoma = tested on: M19-MEL melanoma
U251 CNS = tested on: U251 CNS
EKVX NSCLC = tested on: EKVX NSCLC
SK-OV-3 ovarian = tested on: SK-OV-3 ovarian
ACHN renal = tested on: ACHN renal
TK-10 renal = tested on: TK-10 renal
LXFL 529 NSCLC = tested on: LXFL 529 NSCLC
MALME-3M melanoma = tested on: MALME-3M melanoma
SK-MEL-28 melanoma = tested on: SK-MEL-28 melanoma
HCC-2998 colon = tested on: HCC-2998 colon
HOP-62 NSCLC = tested on: HOP-62 NSCLC
HCT-116 colon = tested on: HCT-116 colon
SW-620 colon = tested on: SW-620 colon
786-0 renal = tested on: 786-0 renal
SK-MEL-2 melanoma = tested on: SK-MEL-2 melanoma
XF 498 CNS = tested on: XF 498 CNS
HS 578T breast = tested on: HS 578T breast
SNB-78 CNS = tested on: SNB-78 CNS
SNB-75 CNS = tested on: SNB-75 CNS
CCRF-CEM leukemia = tested on: CCRF-CEM leukemia
OVCAR-4 ovarian = tested on: OVCAR-4 ovarian
MOLT-4 leukemia = tested on: MOLT-4 leukemia
KM12 colon = tested on: KM12 colon
RXF-631 renal = tested on: RXF-631 renal

SMILES: C/C(=N\N=C(N)N)C(CN(C)C)C(c1ccccc1)c1c(O)c2ccccc2oc1=O (stereo not given)
- TGI (RPMI-8226 leukemia): > 100 µM
- TGI (IGROV1 ovarian): > 100 µM
- TGI (NCI-H23 lung): > 100 µM
- TGI (NCI-H460 lung): > 100 µM
- TGI (HT29 colon): > 100 µM
- TGI (MCF7 breast): > 100 µM
- TGI (NCI/ADR-RES ovarian): > 100 µM
- TGI (UO-31 renal): > 100 µM
- TGI (UACC-62 melanoma): > 100 µM
- TGI (HCT-15 colon): > 100 µM
- TGI (BT-549 breast): > 100 µM
- TGI (SR leukemia): > 100 µM
- TGI (DMS 273 small cell lung): > 100 µM
- TGI (NCI-H522 lung): > 100 µM
- TGI (SK-MEL-5 melanoma): > 100 µM
- TGI (MDA-N): > 100 µM
- TGI (A498 renal): > 100 µM
- TGI (COLO 205 colon): > 100 µM
- TGI (PC-3 prostate): > 100 µM
- TGI (KM20L2 colon): > 100 µM
- TGI (UACC-257 melanoma): > 100 µM
- TGI (SN12C renal): > 100 µM
- TGI (MDA-MB-435): > 100 µM
- TGI (SF-268 CNS): > 100 µM
- TGI (DU-145 prostate): > 100 µM
- TGI (HL-60(TB) leukemia): > 100 µM
- TGI (SNB-19 CNS): > 100 µM
- TGI (NCI-H226 lung): > 100 µM
- TGI (RXF 393 renal): > 100 µM
- TGI (DLD-1 colon): > 100 µM
- TGI (CAKI-1 renal): > 100 µM
- TGI (MDA-MB-231 breast): > 100 µM
- TGI (T-47D breast): > 100 µM
- TGI (M14 melanoma): > 100 µM
- TGI (HOP-92 NSCLC): > 100 µM
- TGI (DMS 114 small cell lung): > 100 µM
- TGI (LOX IMVI melanoma): > 100 µM
- TGI (SF-539 CNS): > 100 µM
- TGI (SF-295 CNS): > 100 µM
- TGI (A549 NSCLC): > 100 µM
- TGI (OVCAR-5 ovarian): > 100 µM
- TGI (OVCAR-3 ovarian): > 100 µM
- TGI (OVCAR-8 ovarian): > 100 µM
- TGI (K-562 leukemia): > 100 µM
- TGI (HOP-18 NSCLC): > 100 µM
- TGI (M19-MEL melanoma): > 100 µM
- TGI (U251 CNS): > 100 µM
- TGI (EKVX NSCLC): > 100 µM
- TGI (SK-OV-3 ovarian): > 100 µM
- TGI (ACHN renal): > 100 µM
- TGI (TK-10 renal): > 100 µM
- TGI (LXFL 529 NSCLC): > 100 µM
- TGI (MALME-3M melanoma): > 100 µM
- TGI (SK-MEL-28 melanoma): > 100 µM
- TGI (HCC-2998 colon): > 100 µM
- TGI (HOP-62 NSCLC): > 100 µM
- TGI (HCT-116 colon): > 100 µM
- TGI (SW-620 colon): > 100 µM
- TGI (786-0 renal): > 100 µM
- TGI (SK-MEL-2 melanoma): > 100 µM
- TGI (XF 498 CNS): > 100 µM
- TGI (HS 578T breast): > 100 µM
- TGI (SNB-78 CNS): > 100 µM
- TGI (SNB-75 CNS): > 100 µM
- TGI (CCRF-CEM leukemia): > 100 µM
- TGI (OVCAR-4 ovarian): > 100 µM
- TGI (MOLT-4 leukemia): > 100 µM
- TGI (KM12 colon): > 100 µM

SMILES: Cn1cnc([N+](=O)[O-])c1Sc1nnnn1-c1ccccc1
- TGI (RPMI-8226 leukemia): 52.6 µM
- TGI (IGROV1 ovarian): 33.7 µM
- TGI (NCI-H23 lung): 34.7 µM
- TGI (NCI-H460 lung): 33.5 µM
- TGI (HT29 colon): 31.9 µM
- TGI (UO-31 renal): 27.9 µM
- TGI (UACC-62 melanoma): 27.4 µM
- TGI (DMS 273 small cell lung): 29 µM
- TGI (NCI-H522 lung): 7.35 µM
- TGI (SK-MEL-5 melanoma): 29.9 µM
- TGI (A498 renal): 38.9 µM
- TGI (COLO 205 colon): 20.7 µM
- TGI (UACC-257 melanoma): 27.6 µM
- TGI (SN12C renal): 29.7 µM
- TGI (SF-268 CNS): 39.4 µM
- TGI (SNB-19 CNS): > 100 µM
- TGI (NCI-H226 lung): 36.3 µM
- TGI (DLD-1 colon): 22.1 µM
- TGI (CAKI-1 renal): 30.1 µM
- TGI (M14 melanoma): 23.7 µM
- TGI (RXF-631 renal): 30.6 µM
- TGI (HOP-92 NSCLC): 13 µM
- TGI (DMS 114 small cell lung): 33 µM
- TGI (LOX IMVI melanoma): 19.1 µM
- TGI (SF-539 CNS): 24.9 µM
- TGI (SF-295 CNS): 39.7 µM
- TGI (A549 NSCLC): 62.9 µM
- TGI (OVCAR-5 ovarian): 31.7 µM
- TGI (OVCAR-3 ovarian): 26.6 µM
- TGI (OVCAR-8 ovarian): 27.9 µM
- TGI (K-562 leukemia): 19.9 µM
- TGI (HOP-18 NSCLC): 8.26 µM
- TGI (M19-MEL melanoma): 24.4 µM
- TGI (U251 CNS): 26 µM
- TGI (EKVX NSCLC): 29.6 µM
- TGI (SK-OV-3 ovarian): > 100 µM
- TGI (ACHN renal): 27 µM
- TGI (TK-10 renal): 32.4 µM
- TGI (LXFL 529 NSCLC): 15.4 µM
- TGI (MALME-3M melanoma): 21.3 µM
- TGI (SK-MEL-28 melanoma): 28.6 µM
- TGI (HCC-2998 colon): 32.5 µM
- TGI (HOP-62 NSCLC): > 100 µM
- TGI (HCT-116 colon): 23.4 µM
- TGI (SW-620 colon): 20.2 µM
- TGI (786-0 renal): 30.5 µM
- TGI (SK-MEL-2 melanoma): 29.5 µM
- TGI (XF 498 CNS): 24.6 µM
- TGI (SNB-78 CNS): 34.2 µM
- TGI (SNB-75 CNS): 31 µM
- TGI (CCRF-CEM leukemia): 7.12 µM
- TGI (OVCAR-4 ovarian): 22.2 µM
- TGI (MOLT-4 leukemia): 6.22 µM
- TGI (KM12 colon): 35.2 µM

SMILES: O=C(/C=C/c1ccccc1Cl)c1ccc(Cl)cc1Cl
- TGI (RPMI-8226 leukemia): 37.5 µM
- TGI (IGROV1 ovarian): 27.6 µM
- TGI (NCI-H23 lung): 37.9 µM
- TGI (NCI-H460 lung): 31.6 µM
- TGI (HT29 colon): 28 µM
- TGI (UO-31 renal): 36.9 µM
- TGI (UACC-62 melanoma): 27.6 µM
- TGI (HCT-15 colon): 25.4 µM
- TGI (DMS 273 small cell lung): 29.6 µM
- TGI (SK-MEL-5 melanoma): 28.6 µM
- TGI (A498 renal): 33.3 µM
- TGI (COLO 205 colon): 32.1 µM
- TGI (KM20L2 colon): 28.3 µM
- TGI (UACC-257 melanoma): 29.7 µM
- TGI (SN12C renal): 32.2 µM
- TGI (SF-268 CNS): 31.3 µM
- TGI (HL-60(TB) leukemia): 46.3 µM
- TGI (SNB-19 CNS): 28.8 µM
- TGI (NCI-H226 lung): 31.5 µM
- TGI (DLD-1 colon): 32.3 µM
- TGI (CAKI-1 renal): 28.4 µM
- TGI (M14 melanoma): 32 µM
- TGI (RXF-631 renal): 34.6 µM
- TGI (HOP-92 NSCLC): 39 µM
- TGI (DMS 114 small cell lung): 26.3 µM
- TGI (SF-539 CNS): 38.5 µM
- TGI (SF-295 CNS): 36.3 µM
- TGI (A549 NSCLC): 39.8 µM
- TGI (OVCAR-5 ovarian): 30.8 µM
- TGI (OVCAR-3 ovarian): 31.6 µM
- TGI (OVCAR-8 ovarian): 29.3 µM
- TGI (K-562 leukemia): 11.7 µM
- TGI (HOP-18 NSCLC): 31.2 µM
- TGI (M19-MEL melanoma): 31.9 µM
- TGI (U251 CNS): 25.5 µM
- TGI (EKVX NSCLC): 32.9 µM
- TGI (SK-OV-3 ovarian): 35.6 µM
- TGI (ACHN renal): 32 µM
- TGI (TK-10 renal): 31.7 µM
- TGI (LXFL 529 NSCLC): 29.7 µM
- TGI (MALME-3M melanoma): 33.5 µM
- TGI (SK-MEL-28 melanoma): 24.8 µM
- TGI (HCC-2998 colon): 33.1 µM
- TGI (HOP-62 NSCLC): 42.1 µM
- TGI (HCT-116 colon): 20.5 µM
- TGI (SW-620 colon): 3.36 µM
- TGI (786-0 renal): 31.4 µM
- TGI (SNB-78 CNS): 36.2 µM
- TGI (SNB-75 CNS): 37.4 µM
- TGI (CCRF-CEM leukemia): 17.4 µM
- TGI (OVCAR-4 ovarian): 29.7 µM
- TGI (MOLT-4 leukemia): 26 µM
- TGI (KM12 colon): 24.1 µM

— PubChem BioAssay (NCI)
